Measurements taken from ChEMBL document CHEMBL1201862, “PubChem BioAssay data set” (2004).
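Cultured in 96-well plates, cells were exposed to test compound for 48 hours across five concentrations. GI50 is the concentration that inhibits growth by half.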 The source made the active and inactive calls. Cut-off read from the data, not from the text of the source: active = GI50 up to about 1.1 µM and inactive = higher.

Tests used:
Assay in all cases: NCI anticancer screen, dose series, 48 h
A498 = test system: A498
A549 = test system: A549
ACHN = test system: ACHN
BT-549 = test system: BT-549
CAKI-1 = test system: CAKI-1
CCRF-CEM = test system: CCRF-CEM
COLO 205 = test system: COLO 205
EKVX = test system: EKVX
HCC 2998 = test system: HCC 2998
HCT-116 = test system: HCT-116
HCT-15 = test system: HCT-15
HOP-62 = test system: HOP-62
HOP-92 = test system: HOP-92
HT-29 = test system: HT-29
Hs-578T = test system: Hs-578T
K562 = test system: K562
KM12 = test system: KM12
LOX IMVI = test system: LOX IMVI
M14 = test system: M14
MCF7 = test system: MCF7
MDA-MB-231 = test system: MDA-MB-231
MDA-MB-435 = test system: MDA-MB-435
MDA-N = test system: MDA-N
MOLT-4 = test system: MOLT-4
Malme-3M = test system: Malme-3M
NCI-H226 = test system: NCI-H226
NCI-H23 = test system: NCI-H23
NCI-H522 = test system: NCI-H522
NCI/ADR-RES = test system: NCI/ADR-RES
OVCAR-4 = test system: OVCAR-4
OVCAR-5 = test system: OVCAR-5
OVCAR-8 = test system: OVCAR-8
PC-3 = test system: PC-3
RXF 393 = test system: RXF 393
SF-268 = test system: SF-268
SF-295 = test system: SF-295
SK-MEL-28 = test system: SK-MEL-28
SK-MEL-2 = test system: SK-MEL-2
SK-MEL-5 = test system: SK-MEL-5
SK-OV-3 = test system: SK-OV-3
SN12C = test system: SN12C
SNB-19 = test system: SNB-19
SNB-75 = test system: SNB-75
SR = test system: SR
T47D = test system: T47D
TK-10 = test system: TK-10
U-251 = test system: U-251
UACC-257 = test system: UACC-257
UACC-62 = test system: UACC-62
UO-31 = test system: UO-31
786-0 = test system: 786-0
DU-145 = test system: DU-145
HL-60 = test system: HL-60
IGROV-1 = test system: IGROV-1
NCI-H460 = test system: NCI-H460
OVCAR-3 = test system: OVCAR-3
RPMI-8226 = test system: RPMI-8226
SW-620 = test system: SW-620

In the case of `COc1ccc(N2C(=O)/C(=C\c3ccccc3)SC2c2cc(OC)c(OC)c(OC)c2)cc1` (stereo not given), the GI50 (A498) is reported as 73.8 µM (inactive), the GI50 (A549) is reported as > 100 µM (inactive) and the GI50 (ACHN) is reported as 60.3 µM (inactive). For the same molecule, the GI50 (BT-549) was > 100 µM (inactive), the GI50 (CAKI-1) was 46.8 µM (inactive) and the GI50 (CCRF-CEM) was 10.7 µM (inactive). For the same molecule, the GI50 (COLO 205) was 74.1 µM (inactive), the GI50 (EKVX) was 15 µM (inactive) and the GI50 (HCC 2998) was > 100 µM (inactive). For the same molecule, the GI50 (HCT-116) was 32.1 µM (inactive), the GI50 (HCT-15) was greater than 100 µM and the GI50 (HOP-62) was 65.8 µM (inactive). The GI50 (HOP-92) was > 100 µM (inactive), the GI50 (HT-29) was 96.6 µM (inactive) and the GI50 (Hs-578T) was 84.5 µM (inactive). The GI50 (K562) was 28.5 µM (inactive), the GI50 (KM12) was 44.3 µM (inactive) and the GI50 (LOX IMVI) was 56.9 µM (inactive). For the same molecule, the GI50 (M14) was 28.5 µM (inactive), the GI50 (MCF7) was 38.4 µM (inactive) and the GI50 (MDA-MB-231) was 88.5 µM (inactive). For the same molecule, the GI50 (MDA-MB-435) was 20 µM (inactive), the GI50 (MDA-N) was 16.9 µM (inactive) and the GI50 (MOLT-4) was 65.6 µM (inactive). The GI50 (Malme-3M) was > 100 µM (inactive), the GI50 (NCI-H226) was > 100 µM (inactive) and the GI50 (NCI-H23) was 92.7 µM (inactive). For the same molecule, the GI50 (NCI-H522) was 14.2 µM (inactive), the GI50 (NCI/ADR-RES) was > 100 µM (inactive) and the GI50 (OVCAR-4) was 82.4 µM (inactive). The GI50 (OVCAR-5) was > 100 µM (inactive), the GI50 (OVCAR-8) was > 100 µM (inactive) and the GI50 (PC-3) was 39.2 µM (inactive). The GI50 (RXF 393) was 31.3 µM (inactive), the GI50 (SF-268) was > 100 µM (inactive) and the GI50 (SF-295) was > 100 µM (inactive). The GI50 (SK-MEL-28) was > 100 µM (inactive), the GI50 (SK-MEL-2) was 30.4 µM (inactive) and the GI50 (SK-MEL-5) was 48.4 µM (inactive). The GI50 (SK-OV-3) was 48.9 µM (inactive), the GI50 (SN12C) was > 100 µM (inactive) and the GI50 (SNB-19) was > 100 µM (inactive). The GI50 (SNB-75) was 8.05 µM (inactive), the GI50 (SR) was 29.9 µM (inactive) and the GI50 (T47D) was 20.1 µM (inactive). For the same molecule, the GI50 (TK-10) was > 100 µM (inactive), the GI50 (U-251) was 43.9 µM (inactive) and the GI50 (UACC-257) was > 100 µM (inactive). The GI50 (UACC-62) was 52.5 µM (inactive) and the GI50 (UO-31) was 50.4 µM (inactive).
For `CCOC(=O)c1c(N)n(-c2ccccc2)c(=S)n(-c2ccccc2)c1=O`, the GI50 (786-0) was > 100 µM (inactive), the GI50 (A549) was > 100 µM (inactive) and the GI50 (ACHN) was > 100 µM (inactive). For the same molecule, the GI50 (BT-549) was > 100 µM (inactive), the GI50 (CCRF-CEM) was > 100 µM (inactive) and the GI50 (COLO 205) was > 100 µM (inactive). For the same molecule, the GI50 (DU-145) was > 100 µM (inactive), the GI50 (HCC 2998) was > 100 µM (inactive) and the GI50 (HCT-15) was greater than 100 µM. The GI50 (HL-60) was > 100 µM (inactive), the GI50 (HOP-92) was > 100 µM (inactive) and the GI50 (HT-29) was > 100 µM (inactive). For the same molecule, the GI50 (Hs-578T) was > 100 µM (inactive), the GI50 (IGROV-1) was > 100 µM (inactive) and the GI50 (K562) was > 100 µM (inactive). The GI50 (KM12) was > 100 µM (inactive), the GI50 (LOX IMVI) was > 100 µM (inactive) and the GI50 (M14) was > 100 µM (inactive). The GI50 (MCF7) was > 100 µM (inactive), the GI50 (MDA-MB-231) was > 100 µM (inactive) and the GI50 (MDA-MB-435) was > 100 µM (inactive). For the same molecule, the GI50 (MDA-N) was > 100 µM (inactive), the GI50 (MOLT-4) was > 100 µM (inactive) and the GI50 (Malme-3M) was > 100 µM (inactive). For the same molecule, the GI50 (NCI-H226) was > 100 µM (inactive), the GI50 (NCI-H23) was > 100 µM (inactive) and the GI50 (NCI-H460) was > 100 µM (inactive). The GI50 (NCI-H522) was > 100 µM (inactive), the GI50 (OVCAR-3) was > 100 µM (inactive) and the GI50 (OVCAR-4) was > 100 µM (inactive). The GI50 (OVCAR-5) was > 100 µM (inactive), the GI50 (OVCAR-8) was > 100 µM (inactive) and the GI50 (RPMI-8226) was > 100 µM (inactive). For the same molecule, the GI50 (RXF 393) was > 100 µM (inactive), the GI50 (SF-268) was > 100 µM (inactive) and the GI50 (SF-295) was > 100 µM (inactive). For the same molecule, the GI50 (SK-MEL-28) was > 100 µM (inactive), the GI50 (SK-MEL-2) was > 100 µM (inactive) and the GI50 (SK-MEL-5) was > 100 µM (inactive). For the same molecule, the GI50 (SN12C) was > 100 µM (inactive), the GI50 (SNB-19) was > 100 µM (inactive) and the GI50 (SNB-75) was > 100 µM (inactive). The GI50 (SR) was > 100 µM (inactive), the GI50 (SW-620) was > 100 µM (inactive) and the GI50 (T47D) was > 100 µM (inactive). The GI50 (TK-10) was > 100 µM (inactive), the GI50 (U-251) was > 100 µM (inactive) and the GI50 (UACC-257) was > 100 µM (inactive). For the same molecule, the GI50 (UACC-62) was > 100 µM (inactive) and the GI50 (UO-31) was > 100 µM (inactive).
